# Results as given in patent US5298502A, “Method and composition for photodynamic treatment and detection of tumors” (priority 1991, dated 1994).
# Assays:
# HeLa cells [1] = test: Proto IX production in HeLa cells, extract of cells alone (Example 7); assay type: cell-based; conditions: Homo sapiens, 100 uM agent, first formula (background-subtracted), read-out: increase in the amount of Proto IX relative to the control
# Experimental: In a series of experiments along the lines of Examples 1 and 2, cultures of HeLa cells were incubated in the presence of 100 uM of various treating agents, listed below. The percentage given, next to each treating agent, indicates the increase in the amount of Proto IX produced in the presence of that treating agent relative to the amount produced by the control in the same experiment.
# As in Examples 1 and 2, the data for this Example 7 were based on measurements of fluorescence (e.g. in counts per second, "cps"). In this Example, however, the measurements were made on an extract of the cells alone (in contrast to Examples 1 and 2 in which the disrupted cells and culture medium together were extracted), the fluorometric medium was the one described in Example 5 (containing 1% Tween-20, 50 mM Tris-HCl, 1 mM EDTA and 1 mM dithioerythritol, pH 8.5), and a cps measurement of the fluorometric medium per se was also made. In calculating the foregoing data for this Example, the following formula was used to calculate the percentage increases: [formula] where Ca is the counts per second for the sample resulting from treatment with the agent, Cc is the counts per second for the control sample, and Cm is the counts per second for the fluorometric medium per se (i.e. the background fluoroescence). On reviewing the data it was observed that Cc -Cm for this set of experiments was […] compared to Cm; for instance, individual measured values were 49025 and 52069 for Cc and 4295 for Cm. […] Accordingly, the data were recalculated using the formula: [formula] with the following results: 6a 336%; 5b 148%; 6c 154%; 6d 510%; 6e 320%; 6f 280%; 6g 329%; 6h 178%; 6i 171%; 6j 185%; 7a 118%; 7b 142%; 7c 103%; 7d 128%; 7e 173%; 7f 118%; 7q 155%; 7h 118%.
# mosquito larvae = test: Insecticidal test against mosquito larvae; conditions: in vivo
# [2] = tested on: DBA/2 Ha mice with SMT-F subcutaneous tumors; test: Proto IX content of tissues of tumor-bearing mice fed the agent (Example 6); assay type: in vivo; conditions: for concentration of Proto IX in tissue, Adrenal / concentration of Proto IX in tissue, Intestine / concentration of Proto IX in tissue, Kidneys / concentration of Proto IX in tissue, Liver / concentration of Proto IX in tissue, Tumor / Proto IX Mean Cps per gram, Intestine: 2000 ppm in feed; for Proto IX Mean Cps per gram, Adrenal / Proto IX Mean Cps per gram, Kidneys / Proto IX Mean Cps per gram, Liver / Proto IX Mean Cps per gram, Tumor / Weight of Tumor as excised: 2000 ppm in feed Days 2-10, sacrificed Day 10 (6j Day 7)
# Experimental: In this Example the enzyme-inhibiting agents were added to the feed of tumor-bearing mice; for some of the mice, used as a control, no agent was added to the feed. The mice were then sacrificed and their kidneys, intestines, adrenal glands, liver and tumor were removed and analyzed for their content of Proto IX. The following enzyme-inhibiting agents were employed: [drawing 10]
# More particularly, the mice were DBA/2 Ha mice which had been injected with SMT-F subcutaneous tumors on Day 0 in the right shoulder. The mice, individually housed, received untreated Purina Rodent Chow 5001 Mash on Day 1; thereafter on Days 2 through 10 the mice received the same Mash treated with 2000 ppm of the inhibiting agent being tested (or, for the controls, the same untreated Mash). The treatment of the Mash was effected by blending it with a small amount of an acetone solution of the agent to be tested. The mice were then sacrificed on Day 10, except for the mouse treated with the agent designated as 6j; the latter was sacrificed on Day 7. The tissues were refrigerated at 4° C. overnight, then blotted dry, and the fresh weight of each tissue sample was recorded. The tissues were then homogenized in 5 mL, or lo mL in the cases of intestines and liver, of acetone-0.1 N NH4 OH (9:I, v/v). The homogenates were then centrifuged at 1500 g and the supernatants were analyzed on a SPEX FAII2 spectrofluorometer; excitation 400 nm, emission 630 nm wavelengths, the optima for Proto IX. Proto IX accumulation was determined as CPS (fluorescent counts per second emitted) per gram of tissue. The results are tabulated below (results are averages for two mice for each treatment, except for treatments with agents 6f, 6h, 6i and 6j in each of which only one mouse was treated): […]
# HeLa cells [3] = test: Proto IX in HeLa cells and culture medium, cell growth observations (Example 8); assay type: cell-based, human; conditions: 100 μM agent
# Experimental: In a manner similar to Examples 1 and 2, cultures of HeLa cells were incubated in the presence of 100 μM of various treating agents, listed below. The agent was added in dilute solution in dimethylsulfoxide (DMSO),and the controls contained 0.2% DMSO v/v. After such incubation the culture medium was poured off, removing it from the cells, the cells were loosened from the culture flasks by addition of 0.25% W/v trypsin Which remained in contact With the cells for 20 minutes at 37° C., after which a fluorometric medium was added to the flask. The fluorometric medium was the same as that described in Example 7 except that its pH was 6.5; this medium also acted as an extractant. The resulting extract was analyzed for proto IX content. The separated culture medium was also analyzed fluorometrically for Proto IX content. The pairs of percentages given, next to each treating agent, indicate the amount of Proto IX produced in the presence of that treating agent relative to the amount produced by the control in the same experiment; the first number of each pair relates to the concentration of Proto IX in the culture medium and the second number relates to the concentration in the cells. [drawing 12]
# chondrosarcoma = test: Photodynamic treatment of chondrosarcoma in rats fed the agent (Example 9); assay type: in vivo, Sprague-Dawley rats; conditions: three rats, 2000 ppm in feed for 6 days, 630 nm light 270 J/cm^2
# Experimental: Specifically, three Sprague-Dawley rats of average weight 120 g were placed on a diet of feed containing 2000 ppm of the agent for a period of 6 days. On day 3, chondrosarcoma was implanted into the right hind limb of each rat by injecting 0.3 mL of a suspension of the tumor cells (about one million tumor cells). On day 6 the right hind limb of each rat was shaven and depilated, the size of each tumor was measured, and the tumor area and surrounding skin were then exposed to non-thermal doses of 630 nm light for a total of 270 J/cm^2.
# In another set of experiments, 20 of the rats were placed on the same diet as above (i.e. feed containing 2000 ppm of agent), provided ad libitum, for 10 days before the treatment with the light, and the injection of the tumor cell suspension was made after the animals had been on the diet for 7 days. Such an injection causes the formation of a tumor having a well defined vascular network within 1 to 2 days. At the time of the treatment with light the tumors had diameters of 5-8 mm and were free of evident necrosis.
# [4] = samples diluted with 3 parts basic acetone to one part sample
Compound,activation at 100 µM (HeLa cells [1]) [%],activity against mosquito larvae (mosquito larvae),"concentration of Proto IX in tissue, Adrenal [2]","concentration of Proto IX in tissue, Intestine [2]","concentration of Proto IX in tissue, Kidneys [2]","concentration of Proto IX in tissue, Liver [2]","concentration of Proto IX in tissue, Tumor [2]","Proto IX Mean Cps per gram, Adrenal [2] [Cps per gram × 10^3]","Proto IX Mean Cps per gram, Kidneys [2] [Cps per gram × 10^3]","Proto IX Mean Cps per gram, Liver [2] [Cps per gram × 10^3]","Proto IX Mean Cps per gram, Tumor [2] [Cps per gram × 10^3]",Weight of Tumor as excised [2] [mg],"Proto IX Mean Cps per gram, Intestine [2, 4] [Cps per gram × 10^3]",activity in the test in Example 8 (Proto IX production) (HeLa cells [3]),tumor regression on the day after light treatment (chondrosarcoma),"Proto IX Mean Cps per gram, Intestine ([2]; undiluted samples (6j Day 7)) [Cps per gram × 10^3]"
CCOC(=O)C(C)Oc1ccc(Oc2cc(-n3nc(C)n(C(F)F)c3=O)c(F)cc2Cl)cc1 (centres unmarked) [Agent 6a],337,active,60 ug of Proto IX per gram of tis,54 ug of Proto IX per gram of tis,99 ug of Proto IX per gram of tis,39 ug of Proto IX per gram of tis,11 ug of Proto IX per gram of tis,6572,10817,4291,1203,143,5870,,,
CCS(=O)(=O)Nc1cc(-n2nnn(CCCF)c2=O)c(F)cc1Cl [Compound 8h],,active,,,,,,,,,,,,,,
CCOC(=O)C(Cl)Cc1cc(-n2nc(C)n(C(F)F)c2=O)c(F)cc1Cl (centres unmarked),,active,,,,,,,,,,,,,,
CS(=O)(=O)NC(=O)c1cc(Oc2ccc(C(F)(F)F)cc2Cl)ccc1[N+](=O)[O-] [Compound 8c],,,,,,,,,,,,,,much less active than compound 6c,did not produce any regression of the tumors,
C#CCN1C(=O)COc2cc(F)c(-n3nc4c(c3Cl)CCCC4)cc21 [Agent 6i],544,,337 ug of Proto IX per gram of tis,32 ug of Proto IX per gram of tis,37 ug of Proto IX per gram of tis,14 ug of Proto IX per gram of tis,9 ug of Proto IX per gram of tis,36940,4014,1510,932,20,,,,3454
C#CCN1C(=O)C(F)Oc2cc(F)c(-n3nc(C)n(C(F)F)c3=O)cc21 (centres unmarked) [Agent 6g],326,,18 ug of Proto IX per gram of tis,4 ug of Proto IX per gram of tis,6 ug of Proto IX per gram of tis,7 ug of Proto IX per gram of tis,2 ug of Proto IX per gram of tis,1984,606,803,166,250,,,,466
COC(=O)c1cc(Oc2ccc(C(F)(F)F)cc2Cl)ccc1[N+](=O)[O-] [Agent 6b],366,,23 ug of Proto IX per gram of tis,51 ug of Proto IX per gram of tis,22 ug of Proto IX per gram of tis,12 ug of Proto IX per gram of tis,14 ug of Proto IX per gram of tis,2529,2441,1261,1520,90,5577,,,
